The target in one data set is T1, TYK2 (Homo sapiens, UniProt P29597).
T1 construct: purchased Invitrogen PV4790
Kind of data set: TYK2 kinase ADP-Glo assay (Example 59). Particulars: TYK2 (Invitrogen) 4 nM, ATP 10 μM, IRS1 0.03 mg/mL, 25° C. 60 min, read-out: IC50 (nM), TYK2 Experiment. It counts as biochemical.

The target in another data set is JAK1 (Homo sapiens, UniProt P23458). Kind of data set: JAK1 kinase ADP-Glo assay (Example 59). It counts as biochemical. The arrangement: purchased Invitrogen PV4774. The following applies: JAK1 (Invitrogen) 4 nM, ATP 20 μM, IRS1 0.05 mg/mL, 25° C. 60 min, read-out: IC50 (nM), JAK1 Experiment.
The target in the next data set is JAK3 (Homo sapiens, UniProt P52333). Kind of data set: JAK3 kinase ADP-Glo assay (Example 59). The arrangement: purchased Invitrogen PV3855. Particulars: JAK3 (Invitrogen) 0.5 nM, ATP 10 μM, Poly (4:1 Glu, Tyr) 0.03 mg/mL, 25° C. 60 min, read-out: IC50 (nM), JAK3 Experiment. It counts as biochemical.
In another data set the target is JAK2 (Homo sapiens, UniProt O60674). Kind of data set: JAK2 kinase ADP-Glo assay (Example 59).
Data set [1] has as its system itching caused by allergic dermatitis. The following applies: cited from earlier work.
The conditions of data set [2]: in vivo; cited from earlier work.

Sequence of JAK1 (P23458 866-1154 limits assumed): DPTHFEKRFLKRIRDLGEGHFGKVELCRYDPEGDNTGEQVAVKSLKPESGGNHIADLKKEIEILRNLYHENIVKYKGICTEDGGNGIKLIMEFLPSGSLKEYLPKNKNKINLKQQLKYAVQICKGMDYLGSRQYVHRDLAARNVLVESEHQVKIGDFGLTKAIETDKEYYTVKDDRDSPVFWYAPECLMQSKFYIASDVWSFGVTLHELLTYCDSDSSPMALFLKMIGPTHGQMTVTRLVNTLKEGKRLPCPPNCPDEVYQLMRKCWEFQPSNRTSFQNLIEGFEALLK
T1 sequence (P29597 833-1187 limits assumed): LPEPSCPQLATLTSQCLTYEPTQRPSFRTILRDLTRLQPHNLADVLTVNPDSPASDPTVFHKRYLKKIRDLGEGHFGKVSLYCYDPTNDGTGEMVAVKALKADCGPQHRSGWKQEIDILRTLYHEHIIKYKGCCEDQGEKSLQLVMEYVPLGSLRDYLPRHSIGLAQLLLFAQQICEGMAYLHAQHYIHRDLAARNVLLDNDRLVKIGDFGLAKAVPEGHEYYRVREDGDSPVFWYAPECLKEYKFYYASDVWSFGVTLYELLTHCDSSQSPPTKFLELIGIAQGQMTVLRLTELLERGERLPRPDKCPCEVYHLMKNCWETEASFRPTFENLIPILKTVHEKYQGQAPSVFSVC
Sequence of JAK3 (P52333 781-1124 limits assumed): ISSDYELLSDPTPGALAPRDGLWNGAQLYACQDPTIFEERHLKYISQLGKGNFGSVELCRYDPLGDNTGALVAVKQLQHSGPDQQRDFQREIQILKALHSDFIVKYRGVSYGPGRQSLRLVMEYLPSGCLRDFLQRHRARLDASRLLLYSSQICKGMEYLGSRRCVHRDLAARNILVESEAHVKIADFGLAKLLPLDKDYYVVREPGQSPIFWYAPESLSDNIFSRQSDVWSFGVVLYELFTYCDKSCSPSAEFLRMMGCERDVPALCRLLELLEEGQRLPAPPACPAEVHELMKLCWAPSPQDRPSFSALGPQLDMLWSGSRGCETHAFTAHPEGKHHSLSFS
Sequence of JAK2 (O60674 808-1132 limits assumed): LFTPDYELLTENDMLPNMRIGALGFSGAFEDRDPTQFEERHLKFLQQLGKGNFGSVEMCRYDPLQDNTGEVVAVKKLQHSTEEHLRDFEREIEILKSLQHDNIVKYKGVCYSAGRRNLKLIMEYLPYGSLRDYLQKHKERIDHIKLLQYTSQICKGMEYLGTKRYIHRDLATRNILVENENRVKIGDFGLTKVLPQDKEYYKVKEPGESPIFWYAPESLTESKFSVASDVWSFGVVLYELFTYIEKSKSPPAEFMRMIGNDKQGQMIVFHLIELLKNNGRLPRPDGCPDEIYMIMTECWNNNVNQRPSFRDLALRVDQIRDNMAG

For `CCc1cc(O)c(F)cc1-c1ccc2c(-c3nc4c([nH]3)CN(C(=O)C3CC(O)C3)C4)n[nH]c2c1` (centres unmarked) [MDI-213, (2-(6-(2-ethyl-5-fluoro-4-hydroxyphenyl)-1H-indazol-3-yl)pyrrolo[3,4-d]imidazol-5(1H,4H,6H)-yl)(3-hydroxylcyclobutyl)ketone], the IC50 on TYK2 was 0.146 nM; at JAK1 it was 0.146 nM; at JAK3 it was 0.116 nM; against JAK2 it was 166 pM.
As for `CNS(=O)(=O)C[C@H]1CC[C@H](N(C)c2ncnc3[nH]ccc23)CC1` [Olatinib], the “experimental animals (dogs) that alleviated the itching response by more than 50%” value in data set [1] (on the 7th day) is “more than 70%”. The “time to relieve itching during the treatment” value in data set [1] (oral administration of 0.4-0.6 mg/kg twice a day) is at most 24 h.
For the compound `N#CC[C@H](C1CCCC1)n1cc(-c2ncnc3[nH]ccc23)cn1` [Ruxolitinib], in data set [2], the “incidence of the most common hematological adverse effects (low platelet counts and anemia)” value was over 20%; the “incidence of the most common non-hematological adverse effects (ecchymosis, dizziness and headache)” value was over 10%.

(Values after patent publication US12180215B2, “Substituted pyrrolo[3,4-d]imidazoles as JAK inhibitors” (HENAN MEDINNO PHARMACEUTICAL TECHNOLOGY CO., LTD., priority 2019, dated 2024).)
